Test system: patients with moderate to very severe plaque psoriasis
Assay: Open-label extension study of oral tazarotene (Example 4)
Assay type: in vivo, human
Protocol: Two multicenter, double-blind, placebo-controlled studies ware conducted to evaluate the efficacy and safety of oral tazarotene (4.5 mg once daily) in patients with moderate to very severe plaque psoriasis. […] Efficacy evaluations include overall lesional assessment (OLA), percent body surface area involvement, global response to treatment, plaque elevation, scaling, and erythema. OLA is graded on a 6-point scale (0=none, 1=minimal, 2=mild, 3=moderate, 4=severe, 5=very severe).

[1] = 4.5 mg once daily, 12-week extension treatment period, both groups
[2] = 4.5 mg once daily, extension study

- changes in liver function test values or cholesterol levels [2]: no clinically significant changes
SMILES: CCOC(=O)c1ccc(C#Cc2ccc3c(c2)C(C)(C)CCS3)nc1 [tazarotene]
- incidence of arthralgia [1]: 20%
- incidence of cheilitis [1]: 70%
- incidence of dry skin [1]: 25%
- incidence of hypertriglyceridemia [1]: 6%
- patients with clinical success (2-grade reduction in OLA) (4.5 mg once daily, end of the 12-week treatment period): 28%
- serious adverse events [2]: no serious adverse events considered related to the study treatment
- patients with clinical success (2-grade reduction in OLA) (end of the 12-week post-treatment period): 16%

Reference: US20050026949A1, “Methods of therapeutic treatment using amounts of retinoids without regard to body weight” (Allergan, Inc., priority 2003, published 2005)
